From patent US20140271667A1, “Methods and Compositions for Neoadjuvant Therapy” (The Wistar Institute of Anatomy and Biology, priority 2013, published 2014)

How the values were obtained:
PC3 cells [1] = experiment: Transwell cell migration; assay type: cell-based, human; details: Gamitrinib 5 μM, 17-AAG 5 μM, CCCP 12.5 μM, 2-DG 25 mM, rapamycin 0.1 μM, 6 h
Experimental: (§1) Various tumor cell types were treated as indicated in each experiment, suspended in 0.1% BSA/DMEM and seeded (1.6−3.2×10^3 cells/mm2, depending on the cell type) in the upper compartment of […] pore diameter BD transwells (BD). NIH3T3 conditioned medium was placed in the lower compartment as a chemoattractant. After 6-18 h incubations at 37° C., the transwell membranes were recovered and cells on the upper side (non-migratory) were wiped off the surface. Cells on the lower side of the membrane were fixed in methanol, rinsed in water and mounted on glass slides with Vectashield medium containing DAPI (Vector Laboratories). Migrated cells on each membrane were counted by fluorescence microscopy in 5 different fields. For cell invasion assays, transwell membranes were coated with Matrigel and processed as described above.

PC3 cells [2] = experiment: Matrigel-coated transwell cell invasion; assay type: cell-based, human; details: Gamitrinib 5 μM, 17-AAG 5 μM, CCCP 12.5 μM, 2-DG 25 mM, 16 h
Experimental: as §1

AMPK = experiment: Western blotting, AMPK and ACC phosphorylation; assay type: cell-based, human; details: PC3; Gamitrinib 5 μM time course, metformin 5 mM 6 h, 17-AAG 5 μM time course
Experimental: (§2) Protein lysates were prepared in RIPA buffer containing 150 mM NaCl, 1.0% Triton X-100, 0.5% sodium deoxycholate, 0.1% SDS, 50 mM Tris, pH 8.0, in the presence of EDTA-free protease inhibitor cocktail (Roche) and phosphatase inhibitor cocktail 2 and 3 (Sigma Aldrich). Equal amounts of protein lysates were separated by SDS gel electrophoresis, transferred to PVDF membranes and incubated with primary antibodies of various specificities. Protein bands were detected by chemiluminescence, as described (21).

ULK1 = experiment: Western blotting, ULK1 phosphorylation and level; assay type: cell-based, human; details: for ULK1 phosphorylation on Ser555: Gamitrinib 5 μM (within 1-2 h); for ULK1 phosphorylation on Ser555 / ULK1 phosphorylation on Ser757: metformin 5 mM 6 h, 17-AAG 5 μM; for ULK1 phosphorylation on Ser757: Gamitrinib 5 μM
Experimental: as §2

Raptor = experiment: Western blotting, Raptor phosphorylation; assay type: cell-based, human; details: PC3; Gamitrinib 5 μM, metformin 5 mM 6 h, 17-AAG 5 μM
Experimental: as §2

[3] = tested on: Focal Adhesion Kinase (FAK); experiment: Western blotting, FAK phosphorylation; assay type: cell-based, human; details: tumor cells (PC3); Gamitrinib 5 μM, CCCP 12.5 μM, rapamycin 0.1 μM
Experimental: as §2

4EBP1 = experiment: Western blotting, 4EBP1 phosphorylation; assay type: cell-based, human; details: PC3; rapamycin 0.1 μM
Experimental: as §2

PC3 cells [4] = experiment: Cell proliferation by direct cell counting; assay type: cell-based, human; details: vs vehicle, Gamitrinib 5 μM, CCCP 12.5 μM, 2-DG 25 mM
Experimental: (§3) Tumor cells were plated onto 96-well plates at 3.7×10^3/well and treated with vehicle or Gamitrinib (5 μM). After 24 h, cell viability was assessed with a 3 (4,5-dimethyl-thyazoyl-2-yl)2,5 diphenyltetrazolium bromide (MTT) colorimetric assay (24), or, alternatively, by Trypan blue exclusion and light microscopy. Data were background-subtracted relative to vehicle-treated cultures. In some experiments, tumor cell proliferation was assessed by direct cell counting and light microscopy.

PC3 cells [5] = experiment: Cell death by Trypan blue exclusion; assay type: cell-based; details: vs vehicle, Gamitrinib 5 μM, CCCP 12.5 μM, 2-DG 25 mM
Experimental: as §3

Row | SMILES | tumor cell migration (PC3 cells [1]) | tumor cell invasion (PC3 cells [2]) | AMPK and ACC phosphorylation (AMPK) | ULK1 level after longer exposure (ULK1; 24-h exposure of tumor cells, data not shown) | ULK1 phosphorylation on Ser555 (ULK1; PC3) | ULK1 phosphorylation on Ser757 (ULK1; PC3) | total level of ULK1 (ULK1; PC3, time points of the Western blot experiment) | Raptor phosphorylation on Ser792 (Raptor) | FAK phosphorylation on Tyr397 and Tyr925 [3] | 4EBP1 phosphorylation (4EBP1) | tumor cell proliferation (PC3 cells [4]) | cell death by Trypan blue exclusion (PC3 cells [5])
1 | C=CCNC1=C2C[C@@H](C)C[C@H](OC)[C@H](O)[C@@H](C)/C=C(\C)[C@H](OC(N)=O)[C@@H](OC)/C=C\C=C(/C)C(=O)NC(=CC1=O)C2=O [17-AAG, 17-allylamino demethoxygeldanamycin] | did not affect tumor cell migration or invasion | did not affect tumor cell migration or invasion | did not affect AMPK or ACC phosphorylation | caused ULK1 degradation | equally reduced | equally reduced | not affected | remained unphosphorylated | – | – | – | –
2 | CN(C)C(=N)N=C(N)N [metformin] | – | – | activation of AMPK and ACC | – | increased ULK1 phosphorylation on Ser555 | decreased phosphorylation of ULK1 on Ser757 | – | phosphorylation of Raptor on Ser792 | – | – | – | –
3 | CO[C@H]1C[C@@H]2CC[C@@H](C)[C@@](O)(O2)C(=O)C(=O)N2CCCC[C@H]2C(=O)O[C@H]([C@H](C)C[C@@H]2CC[C@@H](O)[C@H](OC)C2)CC(=O)[C@H](C)/C=C(\C)[C@@H](O)[C@@H](OC)C(=O)[C@H](C)C[C@H](C)/C=C/C=C/C=C/1C [rapamycin, Rapamycin] | no effect | – | – | – | – | – | – | – | no effect | suppressed 4EBP1 phosphorylation | – | –
4 | N#CC(C#N)=NNc1cccc(Cl)c1 [CCCP, carbonyl cyanide 3-chlorophenylhydrazone] | suppressed tumor cell migration | suppressed | – | – | – | – | – | – | abolished FAK phosphorylation | – | did not affect cell proliferation | did not affect
5 | O=CC[C@@H](O)[C@H](O)[C@H](O)CO [2-DG, 2-deoxy-D-glucose] | suppressed tumor cell migration | suppressed | – | – | – | – | – | – | – | – | did not affect cell proliferation | did not affect
